The results in this text go back to patent publication US12351571B2, “Substituted quinoxaline compounds as inhibitors of FGFR tyrosine kinases” (ARRAY BIOPHARMA INC., priority 2018, dated 2025).

Molecules are shown by their SMILES.

One assay has as its target FGFR3 (Homo sapiens (Human), UniProt P22607). Description: FGFR Enzyme Activity Assay (LanthaScreen TR-FRET), FGFR3. Particulars: 25 μM ATP, 10 minute incubation; read-out: FGFR3 Enz FRET IC50. It counts as biochemical. The procedure: FGFR3 kinase activity was measured by the Invitrogen LanthaScreen™ Assay technology which directly measures the amount of substrate phosphorylation by TR-FRET using a flourescently-labeled peptide and Europium-labeled antibody. Briefly, 750 pM N-terminal GST-HIS6 fusion protein with a 3C cleavage site recombinant human FGFR3 (amino acids R397-T806) (ProQinase Cat. No. 1068-0000-1) was incubated with 100 nM Alexa Fluor® 647-Poly-GT Peptide Substrate (Life Technologies Cat. No. PV5836) and 25 μM ATP along with test compound in a buffer consisting of 250 mM HEPES, 25 mM MgCl2, 0.05% TritonX-100, pH 7.5, and 2% DMSO. Compounds were typically prepared in a threefold serial dilution in DMSO and added to the assay to give the appropriate final concentration. After a 10 minute incubation at 22° C., an equal volume of 2 nM LanthaScreen® Eu-PY20 Antibody (Life Technologies Cat. No. PV5691) and 10 mM EDTA were added to quench the kinase reaction and start the detection reaction. After an additional 60 minute incubation at 22° C., the reaction was measured using a PerkinElmer EnVision multimode plate reader via TR-FRET dual wavelength detection, and the percent of control (POC) calculated using a ratiometric emission factor. 100 POC was determined using no test compounds and 0 POC was determined using no enzyme. The POC values were fit to a 4-parameter logistic curve as a function of the concentration of the compound, and the IC50 value is the point where the curve crosses 50 POC.
On the technique in general: TR-FRET usually uses a lanthanide donor and a delayed reading to cut background.

The next assay deals with dephosphorylated FGFR2 (Homo sapiens (Human), UniProt P21802). Description: FGFR Enzyme Binding Assay (HTRF tracer displacement), FGFR2. Particulars: 5 nM dephosphorylated FGFR2, 60 minute incubation at 22° C.; read-out: FGFR2 Enz Binding IC50. The protocol:
The potency of compounds inhibiting human isoforms of FGFR kinase was determined using Life Technologies' Homogeneous Time Resolved Fluorescence (HTRF)-based binding assay technology. An incubation was conducted with either 5 nM dephosphorylated FGFR1 (Array Biopharma, p1702; SEQ ID NO: 1, amino acids 458 to 765, dephosphorylated by co-expression with PTP1b (protein tyrosine phosphatase 1B)), 5 nM dephosphorylated FGFR2 (Life Technologies, Cat. No. PV4106 that had been dephosphorylated with Lambda protein phosphatase (New England Biolabs, cat #P0753)) or 5 nM phosphorylated FGFR3 (Array Biopharma, p1836; SEQ ID NO: 5, amino acids 449 to 759), 50 nM Kinase Tracer 236 (Life Technologies Cat. No. PR9078A), 2 nM Biotin-anti-6HIS (Life Technologies Cat. No. PV6090) and 2 nM Europium-Streptavidin (Life Technologies Cat. No. PV6025) along with test compound in a buffer consisting of 50 mM HEPES ((4-(2-hydroxyethyl)-1-piperazineethanesulfonic acid, pH 7.5), 5 mM MgCl2, 0.005% Triton X-100, 1 mM DTT, 1 mM NaVO4 and 2% DMSO in a final volume of 12 μL Compounds were typically prepared as a 3-fold or 4-fold serial dilution in DMSO and added to the assay to give the appropriate final concentration. After a 60 minute incubation at 22° C., the extent of tracer displacement was determined using a PerkinElmer EnVision multimode plate reader via HTRF dual wavelength detection, and the percent of control (POC) was calculated using a ratiometric emission factor. One hundred POC was determined using no test compound, and 0 POC was determined in the presence of 1 μM of an appropriate control inhibitor. A 4-parameter logistic curve was fit to the POC values as a function of the concentration of compound, and the IC50 value was the point where the best-fit curve crossed 50 POC.

Sequence of FGFR3 (P22607 397-806): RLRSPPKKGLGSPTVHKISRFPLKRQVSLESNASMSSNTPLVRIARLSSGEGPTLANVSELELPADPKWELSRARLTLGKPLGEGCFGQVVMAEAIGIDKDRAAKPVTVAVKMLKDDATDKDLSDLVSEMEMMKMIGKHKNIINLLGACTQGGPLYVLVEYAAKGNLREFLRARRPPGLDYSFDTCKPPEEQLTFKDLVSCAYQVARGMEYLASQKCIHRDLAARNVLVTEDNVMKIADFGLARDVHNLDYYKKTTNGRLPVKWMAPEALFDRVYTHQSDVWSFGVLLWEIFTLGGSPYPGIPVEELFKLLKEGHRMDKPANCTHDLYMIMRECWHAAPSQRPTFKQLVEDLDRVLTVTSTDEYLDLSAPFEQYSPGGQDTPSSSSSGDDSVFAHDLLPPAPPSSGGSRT
Sequence of dephosphorylated FGFR2 (P21802 22-821): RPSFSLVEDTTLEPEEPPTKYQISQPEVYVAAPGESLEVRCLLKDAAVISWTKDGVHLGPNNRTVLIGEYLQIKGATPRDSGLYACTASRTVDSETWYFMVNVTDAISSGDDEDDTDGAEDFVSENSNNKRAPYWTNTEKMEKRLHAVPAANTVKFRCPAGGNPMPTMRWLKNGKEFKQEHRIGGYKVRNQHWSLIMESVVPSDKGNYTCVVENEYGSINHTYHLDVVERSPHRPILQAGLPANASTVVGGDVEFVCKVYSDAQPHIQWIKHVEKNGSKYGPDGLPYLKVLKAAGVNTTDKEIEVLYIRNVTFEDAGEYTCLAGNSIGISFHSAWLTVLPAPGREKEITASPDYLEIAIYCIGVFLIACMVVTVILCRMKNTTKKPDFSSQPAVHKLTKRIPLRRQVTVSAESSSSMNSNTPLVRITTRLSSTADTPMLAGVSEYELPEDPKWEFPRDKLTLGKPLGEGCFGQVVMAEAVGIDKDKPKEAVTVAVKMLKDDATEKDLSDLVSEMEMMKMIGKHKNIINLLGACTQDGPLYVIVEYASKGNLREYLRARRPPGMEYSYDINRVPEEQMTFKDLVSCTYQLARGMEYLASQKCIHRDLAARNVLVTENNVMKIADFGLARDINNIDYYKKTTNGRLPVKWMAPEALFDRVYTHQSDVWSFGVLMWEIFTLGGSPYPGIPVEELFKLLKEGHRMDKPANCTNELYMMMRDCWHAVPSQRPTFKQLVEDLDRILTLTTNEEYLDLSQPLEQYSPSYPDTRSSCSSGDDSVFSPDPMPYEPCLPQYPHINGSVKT

As for `COc1cc(Nc2ccc3ncc(-c4ccc(N5CCN(C(=O)C6CN(C(=O)/C=C/CN(C)C)C6)CC5)nc4)nc3c2)cc(OC)c1` [Example 6, (E)-1-(3-(4-(5-(7-((3,5-dimethoxyphenyl)amino)-quinoxalin-2-yl)pyridin-2-yl)piperazine-1-carbonyl)azetidin-1-yl)-4-(dimethylamino)but-2-en-1-one], the IC50 on FGFR3 is 161 nM; on dephosphorylated FGFR2, 14 nM.
In the case of `C=CC(=O)N1CC(F)(C(=O)N2CCN(c3ccc(-c4cnc5ccc(Nc6cc(OC)cc(OC)c6)cc5n4)cn3)CC2)C1` [Example 8, 1-(3-(4-(5-(7-((3,5-dimethoxyphenyl)amino)-quinoxalin-2-yl)pyridin-2-yl)piperazine-1-carbonyl)-3-fluoroazetidin-1-yl)-prop-2-en-1-one], the IC50 at FGFR3 is 631 nM.
Same read-out and setting: for `COc1cc(Nc2ccc3ncc(-c4cnn(C5CCN(C(=O)C6CN(C(=O)/C=C/CN(C)C)C6)CC5)c4)nc3c2)cc(OC)c1` [Example 9, (E)-1-(3-(4-(4-(7-((3,5-dimethoxyphenyl)amino)-quinoxalin-2-yl)-1H-pyrazol-1-yl)piperidine-1-carbonyl)azetidin-1-yl)-4-(dimethylamino)but-2-en-1-one] the value was 23 nM; for `COc1cc(Nc2ccc3ncc(-c4cnn(C5CCN(C(=O)C6(C#N)CN(C(=O)/C=C/CN(C)C)C6)CC5)c4)nc3c2)cc(OC)c1` [Example 11, (E)-3-(4-(4-(7-((3,5-dimethoxyphenyl)amino)-quinoxalin-2-yl)-1H-pyrazol-1-yl)piperidine-1-carbonyl)-1-(4-(dimethyl-amino)but-2-enoyl)-azetidine-3-carbonitrile], 7 nM; for `C=CC(=O)N1CC(C#N)(C(=O)N2CCC(n3cc(-c4cnc5ccc(Nc6cc(OC)cc(OC)c6)cc5n4)cn3)CC2)C1` [Example 12, 1-acryloyl-3-(4-(4-(7-((3,5-dimethoxyphenyl)-amino)quinoxalin-2-yl)-1H-pyrazol-1-yl)-piperidine-1-carbonyl)-azetidine-3-carbonitrile], 13 nM.
For `COc1cc(Nc2ccc3ncc(-c4ccc(N5CCN(C(=O)C6(F)CN(C(=O)/C=C/CN(C)C)C6)CC5)nc4C)nc3c2)cc(OC)c1` [Example 13, (E)-1-(3-(4-(5-(7-((3,5-dimethoxyphenyl)amino)-quinoxalin-2-yl)-6-methylpyridin-2-yl)-piperazine-1-carbonyl)-3-fluoroazetidin-1-yl)-4-(dimethylamino)but-2-en-1-one], on FGFR3, the IC50 was 1830 nM.
On to `COc1cc(Nc2ccc3ncc(-c4cnc(N5CCN(C(=O)C6(F)CN(C(=O)/C=C/CN(C)C)C6)CC5)cc4C)nc3c2)cc(OC)c1` [Example 14, (E)-1-(3-(4-(5-(7-((3,5-dimethoxyphenyl)amino)-quinoxalin-2-yl)-4-methylpyridin-2-yl)-piperazine-1-carbonyl)-3-fluoroazetidin-1-yl)-4-(dimethylamino)but-2-en-1-one], for which the values for the IC50 on FGFR3 and on dephosphorylated FGFR2 were 490 nM and 290 nM, respectively.
On to `C=CC(=O)N1CC(F)(C(=O)N2CCN(c3cc(C)c(-c4cnc5ccc(Nc6cc(OC)cc(OC)c6)cc5n4)cn3)CC2)C1` [Example 15, 1-(3-(4-(5-(7-((3,5-dimethoxyphenyl)amino)-quinoxalin-2-yl)-4-methylpyridin-2-yl)-piperazine-1-carbonyl)-3-fluoroazetidin-1-yl)prop-2-en-1-one], for which the IC50 at FGFR3 stood at 5000 nM.
For the compound `C=CC(=O)N1CC(C(=O)N2CC(n3cc(-c4cnc5ccc(Nc6cc(OC)cc(OC)c6)cc5n4)cn3)C2)C1` [Example 16, 1-(3-(3-(4-(7-((3,5-dimethoxyphenyl)amino)-quinoxalin-2-yl)-1H-pyrazol-1-yl)azetidine-1-carbonyl)azetidin-1-yl)-prop-2-en-1-one], at FGFR3, the IC50 turned out to be 18 nM.
As to `C=CC(=O)N1CC(C(=O)N2CCC(n3ncc(-c4cnc5ccc(Nc6cc(OC)cc(OC)c6)cc5n4)c3C)CC2)C1` [Example 18, 1-(3-(4-(4-(7-((3,5-dimethoxyphenyl)amino)-quinoxalin-2-yl)-5-methyl-1H-pyrazol-1-yl)piperi-dine-1-carbonyl)azetidin-1-yl)prop-2-en-1-one], on FGFR3, the IC50 was determined as 373 nM.
The same measure, in the same setting: for `COc1cc(Nc2ccc3ncc(-c4cnn([C@@H]5CCN(C(=O)C6(F)CN(C(=O)/C=C/CN(C)C)C6)C5)c4)nc3c2)cc(OC)c1` [Example 19, (R,E)-1-(3-(3-(4-(7-((3,5-dimethoxyphenyl)amino)-quinoxalin-2-yl)-1H-pyrazol-1-yl)pyrrolidine-1-carbonyl)-3-fluoro-azetidin-1-yl)-4-(dimethyl-amino)but-2-en-1-one] the value was 50 nM; for `COc1cc(Nc2ccc3ncc(-c4cnn([C@@H]5CCN(C(=O)C6CN(C(=O)/C=C/CN(C)C)C6)C5)c4)nc3c2)cc(OC)c1` [Example 20, (R,E)-1-(3-(3-(4-(7-((3,5-dimethoxyphenyl)amino)-quinoxalin-2-yl)-1H-pyrazol-1-yl)pyrrolidine-1-carbonyl)azetidin-1-yl)-4-(dimethylamino)but-2-en-1-one], 42 nM; for `C=CC(=O)N1CC(C(=O)N2CC[C@@H](n3cc(-c4cnc5ccc(Nc6cc(OC)cc(OC)c6)cc5n4)cn3)C2)C1` [Example 21, (R)-1-(3-(3-(4-(7-((3,5-dimethoxyphenyl)amino)-quinoxalin-2-yl)-1H-pyrazol-1-yl)pyrrolidine-1-carbonyl)azetidin-1-yl)prop-2-en-1-one], 37 nM.
In the case of `COc1cc(Nc2ccc3ncc(-c4c(C)nn(C5CCN(C(=O)C6(F)CN(C(=O)/C=C/CN(C)C)C6)CC5)c4C)nc3c2)cc(OC)c1` [Example 23, (E)-1-(3-(4-(4-(7-((3,5-dimethoxyphenyl)amino)-quinoxalin-2-yl)-3,5-dimethyl-1H-pyrazol-1-yl)piperidine-1-carbonyl)-3-fluoroazetidin-1-yl)-4-(dimethylamino)but-2-en-1-one], the figures for the concentration for half-maximal inhibition (IC50) at FGFR3 and at dephosphorylated FGFR2 were 972 nM and 38 nM, respectively.
The like results for `C=CC(=O)N1CC(C(=O)N2CCN(c3cccc(-c4cnc5ccc(Nc6cc(OC)cc(OC)c6)cc5n4)c3)CC2)C1` [Example 25, 1-(3-(4-(3-(7-((3,5-dimethoxyphenyl)amino)-quinoxalin-2-yl)phenyl)-piperazine-1-carbonyl)-azetidin-1-yl)prop-2-en-1-one] were, in that order, 479 nM and 157 nM.
In the case of `C=CC(=O)N1CC(O)(C(=O)N2CCC(n3cc(-c4cnc5ccc(Nc6cc(OC)cc(OC)c6)cc5n4)cn3)CC2)C1` [Example 26, 1-(3-(4-(4-(7-((3,5-dimethoxyphenyl)amino)quinoxalin-2-yl)-1H-pyrazol-1-yl)piperidine-1-carbonyl)-3-hydroxyazetidin-1-yl)prop-2-en-1-one], the IC50 at FGFR3 was found to be 14 nM; on dephosphorylated FGFR2, 5 nM.

In general, IC50 refers to the midpoint of a concentration-inhibition curve.
